Experimental data taken from publication PMC9090415, “Discovery of small molecule inhibitors of Plasmodium falciparum apicoplast DNA polymerase” (Journal of Enzyme Inhibition and Medicinal Chemistry, 2022).

Target: P. falciparum apicoplast DNA polymerase (Pf-apPOL) (Plasmodium falciparum, UniProt Q8ILY1)
Assay: Fluorescence-based high-throughput DNA polymerase assay (molecular beacon), primary screen and dose-response
Type: biochemical
Details: for DNA Pol: 90 min, 10 µM
Experimental: The HT assay employs a molecular beacon, a stem-loop DNA template with a Cy3 dye and the Black Hole Quencher on the 3′ and 5′ ends of the DNA, respectively. Pf-apPOL concentration is based on a calculated absorptivity of ε280 = 56750 M^−1 cm^−1. Reactions were carried out at 25 °C, using Corning 3575 […] (well-volume, 20 µL). Assays testing for compound inhibition composed of reaction buffer (pH 7.9 in 50 mM potassium acetate, 20 mM Tris-acetate and 10 mM magnesium acetate), Pf-apPOL (20 nM), DNA substrate (20 nM), dNTPs (6 µM), and compound (10 µM in DMSO). The DNA and nucleotide substrates (dNTPs) were at concentrations of 20 nM and 6 µM, respectively, in the assay. Pf-apPOL was incubated in the reaction buffer with dNTPs and the compound of interest (10 µM, in the assay) at 25 °C for 10 min. The DNA substrate was then added and the reaction was allowed to proceed for 90 min at 25 °C.
Each assay plate contained 16 negative controls (no Pf-apPOL, DMSO present) and 16 positive controls (Pf-apPOL present, no DMSO). The fluorescence of each well was determined using a BioTek Synergy Neo fluorescence plate reader using excitation and emission wavelengths of 555 and 570 nm, respectively.
In the above, Min is the average of fluorescence emission of the negative controls (substrate only), Max the average fluorescence emission from the positive controls (enzyme + substrate), and Test the emission from the assays in the presence of compounds (enzyme + compound + substrates). […] […] The IC50 of each compound was determined using Equation (2): (2) IC50= Vmax/(1+ (I/IC50)^n)
In the above, n measures cooperativity, with n > 1 indicating synergistic binding of more than a single molecule of the compound.
To identify apPOL inhibitors we utilised our previously developed high-throughput DNA polymerase assay. The HT assay is based on a molecular beacon DNA template that forms a stem-loop with a Cy3 dye and the Black Hole Quencher on the 3′ and 5′ ends of the DNA, respectively. DNA polymerase activity extends an annealed primer through the stem region, displacing the fluorophore from the quencher, thereby increasing its fluorescence (Figure 1(A)). The assay accurately recapitulates the kinetic behaviour of apPOL, as measured through more conventional low-throughput gel-based assays. The Z′ factor for the assay described here was 0.9 across all plates (data not shown).
Figure 1. High-throughput screening. (A) The fluorescent-based DNA polymerase assay used to screen the compound libraries. The DNA template strand is a hairpin loop with a primer annealed to the loop. The 3’ end of the primer is 11 bases away from the 6 bp duplex. Strand displacement activity of the DNA polymerase separates the Cy3 dye from the Black hole quencher leading to an increase in fluorescent signal. (B) The high-throughput assay workflow. The DNA polymerase is incubated with […] compound for 10 min prior to addition of the hairpin substrate. The reaction is quenched at 3 different time points and the fluorescent signal is measured and % inhibition is determined using the provided equation.

[1] = primary screen value of the 186 hits, unit not given

Sequence of P. falciparum apicoplast DNA polymerase (Pf-apPOL) (Q8ILY1 entry or part of it): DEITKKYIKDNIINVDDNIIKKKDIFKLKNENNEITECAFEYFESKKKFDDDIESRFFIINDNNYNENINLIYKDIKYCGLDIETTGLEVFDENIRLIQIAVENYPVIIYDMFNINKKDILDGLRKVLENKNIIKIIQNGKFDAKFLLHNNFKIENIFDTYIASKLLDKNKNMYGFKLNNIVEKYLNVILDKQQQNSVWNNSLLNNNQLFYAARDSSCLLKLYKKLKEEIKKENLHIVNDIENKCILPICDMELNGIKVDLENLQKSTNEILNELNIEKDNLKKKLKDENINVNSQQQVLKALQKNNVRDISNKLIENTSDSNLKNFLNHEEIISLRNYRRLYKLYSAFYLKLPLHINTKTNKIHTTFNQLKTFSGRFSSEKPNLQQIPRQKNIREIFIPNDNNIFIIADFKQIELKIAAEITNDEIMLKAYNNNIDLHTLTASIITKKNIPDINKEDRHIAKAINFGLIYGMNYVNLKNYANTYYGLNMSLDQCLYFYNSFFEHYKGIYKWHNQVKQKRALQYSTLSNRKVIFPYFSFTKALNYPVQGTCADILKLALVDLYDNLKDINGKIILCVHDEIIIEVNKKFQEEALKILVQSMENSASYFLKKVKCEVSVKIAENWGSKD

CCOc1cccc2cc(C(=O)Nc3nnc(-c4ccno4)o3)oc12 [Molecule 28, CCOc1cccc2c1oc(c2)C(=O)Nc1nnc(o1)c1ccno1]
% inhibition Apo pol 10' (DRC-1, concentration 2.5): 10.6274% | % inhibition Apo pol 10' (DRC-1, concentration 5): 33.541% | % inhibition Apo pol 10' (DRC-1, concentration 10): 66.1299% | % inhibition Apo pol 10' (DRC-1, concentration 20): 85.0301% | % inhibition Apo pol 10' (DRC-1, concentration 40): 91.7568% | % inhibition Apo pol 10' (DRC-1, concentration 80): 93.7028% | % inhibition Apol 90' (DRC-1, 90', concentration 2.5): 2.531% | % inhibition Apol 90' (DRC-1, 90', concentration 5): 15.4654% | % inhibition Apol 90' (DRC-1, 90', concentration 10): 41.5074% | % inhibition Apol 90' (DRC-1, 90', concentration 20): 63.6828% | % inhibition Apol 90' (DRC-1, 90', concentration 40): 78.9695% | % inhibition Apol 90' (DRC-1, 90', concentration 80): 87.3573% | % inhibition apPOL 180' (DRC-1, concentration 2.5): -1.99% | % inhibition apPOL 180' (DRC-1, concentration 5): 5.082% | % inhibition apPOL 180' (DRC-1, concentration 10): 24.8097% | % inhibition apPOL 180' (DRC-1, concentration 20): 44.8371% | % inhibition apPOL 180' (DRC-1, concentration 40): 65.9166% | % inhibition apPOL 180' (DRC-1, concentration 80): 81.0763% | % inhibition Apo pol 5' (DRC-2, 5', concentration 20 (unit not given)): 45% | % inhibition Apo pol 5' (DRC-2, 5', concentration 40 (unit not given)): 45% | % inhibition Apol 40' (DRC-2, 40', concentration 80 (unit not given)): 66% | % inhibition ApPOL 90' (DRC-2, 90', concentration 10 (unit not given)): 45% | % inhibition ApPOL 90' (DRC-2, 90', concentration 40 (unit not given)): 66% | % inhibition Apo pol 5' (DRC-2, 5', concentration 2.5): 16% | % inhibition Apo pol 5' (DRC-2, 5', concentration 5): 28% | % inhibition Apo pol 5' (DRC-2, 5', concentration 10): 46% | % inhibition Apo pol 5' (DRC-2, 5', concentration 20): 45% | % inhibition Apo pol 5' (DRC-2, 5', concentration 40): 45% | % inhibition Apo pol 5' (DRC-2, 5', concentration 80): 39% | % inhibition Apol 40' (DRC-2, 40', concentration 2.5): 14% | % inhibition Apol 40' (DRC-2, 40', concentration 5): 24% | % inhibition Apol 40' (DRC-2, 40', concentration 10): 50% | % inhibition Apol 40' (DRC-2, 40', concentration 20): 57% | % inhibition Apol 40' (DRC-2, 40', concentration 40): 64% | % inhibition Apol 40' (DRC-2, 40', concentration 80): 66% | % inhibition ApPOL 90' (DRC-2, 90', concentration 2.5): 11% | % inhibition ApPOL 90' (DRC-2, 90', concentration 5): 20% | % inhibition ApPOL 90' (DRC-2, 90', concentration 10): 45% | % inhibition ApPOL 90' (DRC-2, 90', concentration 20): 56% | % inhibition ApPOL 90' (DRC-2, 90', concentration 40): 66% | % inhibition ApPOL 90' (DRC-2, 90', concentration 80): 70% | % inhibition apPOL 180' (DRC-2, concentration 2.5): 2% | % inhibition apPOL 180' (DRC-2, concentration 5): 5% | % inhibition apPOL 180' (DRC-2, concentration 10): 29% | % inhibition apPOL 180' (DRC-2, concentration 20): 44% | % inhibition apPOL 180' (DRC-2, concentration 40): 61% | % inhibition apPOL 180' (DRC-2, concentration 80): 72% | DNA Pol [1]: 79 | DNA Pol (primary screen value, head "DNA Pol", unit not given): 79

O=C(Nc1cccc(Cl)c1)Nc1nnc(-c2ccncc2)s1 [KU0022348]
% inhibition Apo pol 10' (DRC-1, concentration 2.5): 12.66% | % inhibition Apo pol 10' (DRC-1, concentration 5): -6.2957% | % inhibition Apo pol 10' (DRC-1, concentration 10): 19.819% | % inhibition Apo pol 10' (DRC-1, concentration 20): 75.3838% | % inhibition Apo pol 10' (DRC-1, concentration 40): 88.0392% | % inhibition Apo pol 10' (DRC-1, concentration 80): 86.8157% | % inhibition Apol 90' (DRC-1, 90', concentration 2.5): 6.139% | % inhibition Apol 90' (DRC-1, 90', concentration 5): -8.679% | % inhibition Apol 90' (DRC-1, 90', concentration 10): 12.9186% | % inhibition Apol 90' (DRC-1, 90', concentration 20): 70.4338% | % inhibition Apol 90' (DRC-1, 90', concentration 40): 84.2961% | % inhibition Apol 90' (DRC-1, 90', concentration 80): 86.1912% | % inhibition apPOL 180' (DRC-1, concentration 2.5): 0.3318% | % inhibition apPOL 180' (DRC-1, concentration 5): -11.6465% | % inhibition apPOL 180' (DRC-1, concentration 10): 5.454% | % inhibition apPOL 180' (DRC-1, concentration 20): 60.8254% | % inhibition apPOL 180' (DRC-1, concentration 40): 80.4807% | % inhibition apPOL 180' (DRC-1, concentration 80): 84.4697% | % inhibition Apo pol 5' (DRC-2, 5', concentration 2.5): 16% | % inhibition Apo pol 5' (DRC-2, 5', concentration 5): 32% | % inhibition Apo pol 5' (DRC-2, 5', concentration 10): 46% | % inhibition Apo pol 5' (DRC-2, 5', concentration 20): 47% | % inhibition Apo pol 5' (DRC-2, 5', concentration 40): 48% | % inhibition Apo pol 5' (DRC-2, 5', concentration 80): 40% | % inhibition Apol 40' (DRC-2, 40', concentration 2.5): 18% | % inhibition Apol 40' (DRC-2, 40', concentration 5): 42% | % inhibition Apol 40' (DRC-2, 40', concentration 10): 64% | % inhibition Apol 40' (DRC-2, 40', concentration 20): 66% | % inhibition Apol 40' (DRC-2, 40', concentration 40): 71% | % inhibition Apol 40' (DRC-2, 40', concentration 80): 57% | % inhibition ApPOL 90' (DRC-2, 90', concentration 2.5): 16% | % inhibition ApPOL 90' (DRC-2, 90', concentration 5): 41% | % inhibition ApPOL 90' (DRC-2, 90', concentration 10): 65% | % inhibition ApPOL 90' (DRC-2, 90', concentration 20): 67% | % inhibition ApPOL 90' (DRC-2, 90', concentration 40): 73% | % inhibition ApPOL 90' (DRC-2, 90', concentration 80): 64% | % inhibition apPOL 180' (DRC-2, concentration 2.5): 6% | % inhibition apPOL 180' (DRC-2, concentration 5): 30% | % inhibition apPOL 180' (DRC-2, concentration 10): 58% | % inhibition apPOL 180' (DRC-2, concentration 20): 60% | % inhibition apPOL 180' (DRC-2, concentration 40): 70% | % inhibition apPOL 180' (DRC-2, concentration 80): 65% | % inhibition Apo pol 5' (conc. 2.5, 5', DRC-2): 16% | % inhibition ApPOL 90' (conc. 2.5, 90', DRC-2): 16% | % inhibition Apol 40' (conc. 10, 40', DRC-2): 64% | % inhibition ApPOL 90' (conc. 10, 90', DRC-2): 65% | % inhibition ApPOL 90' (conc. 80, 90', DRC-2): 64% | % inhibition apPOL 180' (conc. 80, DRC-2): 65% | DNA Pol (primary screen value by plate and well): 61 | DNA Pol [1]: 61
